Data as given in patent US9567329B2, “High penetration prodrug compositions of 1H-imidazo[4,5-c]quinolin-4-amines and 1H-imidazo[4,5-c]quinolin-4-amine-related compounds and uses thereof” (Techfields Pharma Co., Ltd, priority 2007, dated 2017).

Columns and labels:
[1] = In vitro penetration rate across human skin in modified Franz cells; assay type: in vitro ADME; details: 3% solution in ethanol/pH 7.4 phosphate buffer (0.2 M) 70/30
Experimental: Penetration rates of HPPs and their parent drugs through human skin were measured in vitro by modified Franz cells. A Franz cell had two chambers, the top sample chamber and the bottom receiving chamber. The human skin tissue (360-400 μm thick) that separated the top and the receiving chambers was isolated from the anterior or posterior thigh areas.
A compound tested (0.5 mL, 3% in a mixture of ethanol and phosphate buffer (0.2M, pH 7.4) (v/v, 70/30)) was added to the sample chamber of a Franz cell. The receiving chamber contains 2 ml of 2% bovine serum albumin in saline which was stirred at 600 rpm. The amount of the tested compound penetrating the skin was determined by high-performance liquid chromatography (HPLC) method.
The lowest detectable apparent flux values in this method was 1 μg/cm^2/h.

[2] = Conversion of HPPs to parent drugs in human plasma (half life); assay type: in vitro ADME; details: 37° C.
Experimental: HPPs of 1H-imidazo[4,5-c]quinolin-4-amines or 1H-imidazo[4,5-c]quinolin-4-amine-related compounds converted to the parent 1H-imidazo[4,5-c]quinolin-4-amines or 1H-imidazo[4,5-c]quinolin-4-amine-related compounds quickly in good yield in human plasma.
A HPP of 1H-imidazo[4,5-c]quinolin-4-amines or 1H-imidazo[4,5-c]quinolin-4-amine-related compound (0.05 mg) was dissolved in 0.1 ml of 0.2M pH 7.4 phosphate buffer. 1 ml of human plasma, preheated to 37° C., was added into the mixture. The mixture was kept in a water bath at 37° C., and at every 10 min intervals 0.2 ml of samples were withdrawn and added to 0.4 ml of methanol to precipitate the plasma protein. The samples were centrifuged for 5 min and analyzed by HPLC.

[3] = Irritative effect or discomfort on skin of nude mice after topical application; assay type: in vivo; details: 0.1 ml of 3% in pH 7.4 phosphate buffer, back of nude mice, twice per day, 1 week
Experimental: Irritative effect or discomfort in the skin of mice of HPPs of 1H-imidazo[4,5-c]quinolin-4-amines or 1H-imidazo[4,5-c]quinolin-4-amine-related compounds was evaluated during a period of 1 week after the topical application of 0.1 ml of 3% of the respective test drug in pH 7.4 phosphate buffer (0.2 M) to the back of nude mice twice per day.

[4] = test system: Human breast cancer cells (BCAP-37)
Excerpt: Human breast cancer cells (BCAP-37, 3-4 mm^3 of tumor tissue was used in each mouse) were subcutaneously xenografted into nude mice (BALB).

interferon production [5] = test: Interferon inducing activity in guinea pigs (serum protection of fibroblasts from mengovirus); assay type: in vivo; details: serum 18 hours after treatment
[6] = test system: herpes simplex virus Type I; test: Anti-Herpes activity, treated for 5 days, first treatment 5 days after HSV infection; assay type: in vivo; details: guinea pigs
Experimental: (§1) The evaluation of anti-Herpes activity of these prodrugs was carried out using the method described by Kern, et al. [Antimicrob. Agents Chemother. 14, 817, (1978)].
(§2) In the third experiment, female guinea pigs (n=10) were anesthetized. The guinea pigs were then infected with herpes simplex virus (type I or Type II, about 10^5 plaque forming units were used) intravaginally using a cotton swab. […] External lesions were scored daily for ten days using the following scale: 0, no lesion; 1, redness and swelling; 2, a few small vesicles; 3, several large vesicles; 4, large ulcers and necrosis; and 5, paralysis. The percent Lesion Inhibition was calculated as follows: 100−[(Sum of maximum lesion scores of treated group divided by the Sum of the scores of infected control)×100] (Table 7).

[7] = test system: herpes simplex virus Type II; test: as above; assay type: in vivo; details: guinea pigs
Experimental: as §1, §2

[8] = test system: herpes simplex virus Type I; test: Anti-Herpes activity, treated for 5 days, first treatment just after HSV infection; assay type: in vivo; details: guinea pigs
Experimental: as §1
(§3) In the second experiment, female guinea pigs (n=10) were anesthetized. Herpes simplex virus (Type I or Type II, about 10^5 plaque forming units were used) was applied intravaginally to the guinea pigs using a cotton swab. […] Virus replication was monitored by determining the amount of virus recovered with vaginal swabs taken on day 7 after infection. External lesions were scored daily for ten days using the following scale: 0, no lesion; 1, redness and swelling; 2, a few small vesicles; 3, several large vesicles; 4, large ulcers and necrosis; and 5, paralysis. The percent Lesion Inhibition was calculated as follows: 100−[(Sum of maximum lesion scores of treated group divided by the Sum of the scores of infected control)×100] (Table 6).

[9] = test system: herpes simplex virus Type II; test: as above; assay type: in vivo; details: guinea pigs
Experimental: as §1, §3

[10] = test system: herpes simplex virus Type I; test: Anti-Herpes activity, treated for 3 days before HSV infection; assay type: in vivo; details: guinea pigs
Experimental: (§4) The evaluation of anti-Herpes activity of these prodrugs was carried out using the method described by Kern, et al. [Antimicrob. Agents Chemother. 14, 817, (1978)]. In each experiment, female guinea pigs (n=10) were anesthetized. […] Virus replication was monitored by determining the amount of virus recovered with vaginal swabs taken on day 7 after infection. […] The percent Lesion Inhibition was calculated as follows: 100-[(Sum of maximum lesion scores of treated group divided by the Sum of the scores of infected control)×100] (Table 5).

[11] = test system: herpes simplex virus Type II; test: as above; assay type: in vivo; details: guinea pigs
Experimental: as §4

interferon production [12] = test: Interferon inducing activity in guinea pigs (serum protection of fibroblasts from mengovirus); assay type: in vivo; details: serum 18 hours after treatment; remark: listed apart in the source
Experimental: Without being bound by any mechanism, the ability to induce interferon production of the pro-drugs of the invention was evaluated in guinea pigs (n=10). Untreated guinea pigs provided controls.
Each test drug was administered to real back skin of a guinea pig at a specific dose of about 0.5-4.5 mg/kg respectively.
Each treated and control guinea pig was bled 18 hours after drug treatment and its serum was assayed for interferon activity. The serum was diluted and incubated with guinea pig fibroblast cells at 37° C. overnight in 96 well microtiter plates. The incubated cells were then challenged with an inoculum of mengovirus that was sufficient to kill untreated cells in two days. Two days after such challenge, the cells were examined both microscopically and after staining with crystal violet to determine whether the cells remained intact.
Table 4 contains the results of the study with activity/ml indicating the highest dilute on of serum that protected cells from virus challenge. Untreated guinea pigs provided controls.

[13] = test system: Human breast cancer cells (BCAP-37); test: Antitumor activity, breast cancer xenograft, topical treatment from day 1; details: 50 μl of 3% topically once per day from day 1; after 28 days
Excerpt: Human breast cancer cells (BCAP-37, 4-5 mm^3 of tumor tissue was used in each mouse) were subcutaneous xenografted into nude mice (BALB).

[14] = test system: Human colon cancer cells (LS174J); test: Antitumor activity, colon cancer xenograft, topical treatment from day 1; details: 50 μl of 3% topically twice per day from day 1; after 28 days
Excerpt: Human colon cancer cells (LS174J, 4-5 mm^3 of tumor tissue was used in each mouse) were subcutaneously xenografted into nude mice (BALB).

[15] = at day 42, treatment from day 21 (tumors 13±2 mm×12±3 mm), 50 μl of 3% topically once per day
[16] = 0.5 mg/kg once per day for 5 days
[17] = 1.5 mg/kg once per day for 5 days
[18] = 4.5 mg/kg once per day for 5 days
[19] = 0.5 mg/kg once per day for 3 days before HSV infection
[20] = 1.5 mg/kg once per day for 3 days before HSV infection
[21] = 4.5 mg/kg once per day for 3 days before HSV infection

Compound: CCCCn1cnc2c(NC(=O)CNC)nc3ccccc3c21.Cl [sarcosine 1-butyl-1H-imidazo[4,5-c]quinolin-4-amide hydrochloride]
- In vitro Penetration Rate of HPPs (apparent flux) [1]: 0.13 mg/cm^2/h
- Half life of HPPs in plasma [2]: 25 ± 2 min
- signs of irritative effect or discomfort in the skin [3]: None of any signs of irritative effect or discomfort was observed

Compound: CNCC(=O)Nc1nc2ccccc2c2c1ncn2CC(C)C.Cl [sarcosine 1-isobutyl-1H-imidazo[4,5-c]quinolin-4-amide hydrochloride]
- In vitro Penetration Rate of HPPs (apparent flux) [1]: 0.15 mg/cm^2/h
- tumor size, first dimension [4, 15]: 11±2 mm
- tumor size, second dimension [4, 15]: 10±2 mm
- death of mice ([4]; up to day 70, 50 μl of 3% topically once per day from day 21): none of mice died at day 70
- Interferon level of the HPP, intravaginal (interferon production [5]; 0.5 mg/kg once): 23,647 activity/ml
- Interferon level of the HPP, intravaginal (interferon production [5]; 1.5 mg/kg once): 56,735 activity/ml
- Interferon level of the HPP, intravaginal (interferon production [5]; 4.5 mg/kg once): 87,795 activity/ml
- % Lesion inhibition of the HPP, intravaginal, Herpes type I [6, 16]: 37%
- % Lesion inhibition of the HPP, transdermal, Herpes type I [6, 16]: 37%
- % Lesion inhibition of the HPP, intravaginal, Herpes type I [6, 17]: 68%
- % Lesion inhibition of the HPP, transdermal, Herpes type I [6, 17]: 57%
- % Lesion inhibition of the HPP, intravaginal, Herpes type I [6, 18]: 88%
- % Lesion inhibition of the HPP, transdermal, Herpes type I [6, 18]: 89%
- % Lesion inhibition of the HPP, intravaginal, Herpes type II [7, 16]: 38%
- % Lesion inhibition of the HPP, transdermal, Herpes type II [7, 16]: 38%
- % Lesion inhibition of the HPP, intravaginal, Herpes type II [7, 17]: 70%
- % Lesion inhibition of the HPP, transdermal, Herpes type II [7, 17]: 58%
- % Lesion inhibition of the HPP, intravaginal, Herpes type II [7, 18]: 90%
- % Lesion inhibition of the HPP, transdermal, Herpes type II [7, 18]: 88%
- Half life of HPPs in plasma [2]: 27 ± 1 min
- signs of irritative effect or discomfort in the skin [3]: None of any signs of irritative effect or discomfort was observed
- % Lesion inhibition of the HPP, intravaginal, Herpes type I [8, 16]: 57%
- % Lesion inhibition of the HPP, transdermal, Herpes type I [8, 16]: 47%
- % Lesion inhibition of the HPP, intravaginal, Herpes type I [8, 17]: 87%
- % Lesion inhibition of the HPP, transdermal, Herpes type I [8, 17]: 77%
- % Lesion inhibition of the HPP, intravaginal, Herpes type I [8, 18]: 95%
- % Lesion inhibition of the HPP, transdermal, Herpes type I [8, 18]: 91%
- % Lesion inhibition of the HPP, intravaginal, Herpes type II [9, 16]: 56%
- % Lesion inhibition of the HPP, transdermal, Herpes type II [9, 16]: 49%
- % Lesion inhibition of the HPP, intravaginal, Herpes type II [9, 17]: 90%
- % Lesion inhibition of the HPP, transdermal, Herpes type II [9, 17]: 80%
- % Lesion inhibition of the HPP, intravaginal, Herpes type II [9, 18]: 96%
- % Lesion inhibition of the HPP, transdermal, Herpes type II [9, 18]: 93%
- % Lesion inhibition of the HPP, intravaginal, Herpes type I [10, 19]: 71%
- % Lesion inhibition of the HPP, transdermal, Herpes type I [10, 19]: 45%
- % Lesion inhibition of the HPP, intravaginal, Herpes type I [10, 20]: 93%
- % Lesion inhibition of the HPP, transdermal, Herpes type I [10, 20]: 72%
- % Lesion inhibition of the HPP, intravaginal, Herpes type I [10, 21]: 95%
- % Lesion inhibition of the HPP, transdermal, Herpes type I [10, 21]: 91%
- % Lesion inhibition of the HPP, intravaginal, Herpes type II [11, 19]: 75%
- % Lesion inhibition of the HPP, transdermal, Herpes type II [11, 19]: 51%
- % Lesion inhibition of the HPP, intravaginal, Herpes type II [11, 20]: 90%
- % Lesion inhibition of the HPP, transdermal, Herpes type II [11, 20]: 73%
- % Lesion inhibition of the HPP, intravaginal, Herpes type II [11, 21]: 96%
- % Lesion inhibition of the HPP, transdermal, Herpes type II [11, 21]: 90%
- Interferon level of the HPP, transdermal (interferon production [12]; 0.5 mg/kg once): 8,676 activity/ml
- Interferon level of the HPP, transdermal (interferon production [12]; 1.5 mg/kg once): 16,784 activity/ml
- Interferon level of the HPP, transdermal (interferon production [12]; 4.5 mg/kg once): 57,235 activity/ml
- Tumor size, Human breast cancer, first dimension [13]: None
- tumor incidence, human breast cancer [13]: no tumor was seen
- Tumor size, Human colon cancer, first dimension [14]: None
- tumor incidence, human colon cancer [14]: no tumor was seen

Compound: sarcosine 1-benzyl-1H-imidazo[4,5-c]quinolin-4-amide hydrochloride
- In vitro Penetration Rate of HPPs (apparent flux) [1]: 0.16 mg/cm^2/h
- Half life of HPPs in plasma [2]: 29 ± 1 min
- signs of irritative effect or discomfort in the skin [3]: None of any signs of irritative effect or discomfort was observed
